Laboratory results published in patent publication US20260297060A1, “COMPOUNDS FOR THE DEGRADATION OF MUTANT BRAF” (C4 THERAPEUTICS, INC., priority 2023, published 2026).
Like-named read-outs stand apart in the source and are kept apart here.

What was measured:
[1] = system: A375-NRAS^Q61K cells; experiment: CTGlo Cell Viability Assay, A375-NRAS^Q61K (A375.11) cells, 96 hours; type: cell-based, human; conditions: A375.11 (A375-NRAS^Q61K) cells; for CTGlo A375.11 96 hours Emax / Emax: lowest % viability achieved
Method in brief: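 A375 cells carrying BRAF V600E and NRAS Q61K were seeded at 250 cells/well with a 10-point half-log dose series (max 10 μM final). After 96 h at 37 °C, viability was read as ATP luminescence (CellTiter-Glo), background-subtracted and normalized to DMSO (100%). GI50 from 4-parameter fit; Emax is the lowest % viability.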

[2] = molecular target: T1, BRAF V600E (Homo sapiens, UniProt P15056+Q96SW2, V600E); experiment: BRAF V600E HiBiT Degradation Assay; type: cell-based
T1 construct: knock-in of the HiBiT tag to the endogenous BRAF V600E locus; host or cells: A375.10 (A375 clonal line, CRISPR HiBiT knock-in at the endogenous BRAF V600E locus)
Method in brief: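 Endogenous HiBiT knock-in on BRAF V600E in A375 cells (clone A375.10); 11-point half-log series, top 10 μM, 2, 6 or 24 h at 37° C. Lytic HiBiT luminescence, background-subtracted, normalized to DMSO; 4-parameter fit gives DC50, Emax (residual protein) and IP (inflection point).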

[3] = A375.10 cells, BRAF V600E, 2 hours, inflection point, read-out: HiBiT-Degradation A375.10 BRAF 2 hours IP
[4] = A375.10 cells, BRAF V600E, 2 hours, read-out: HiBiT-Degradation A375.10 BRAF 2 hours DC50
[5] = A375.10 cells, BRAF V600E, 2 hours, residual protein remaining
[6] = A375.10 cells, BRAF V600E, 2 hours, residual protein remaining, read-out: HiBiT-Degradation A375.10 BRAF 2 hours Emax
[7] = A375.10 cells, HiBiT, BRAF V600E, 24 hours, read-out: HiBiT-Degradation A375.10 BRAF 24 hours DC50
[8] = A375.10 cells, HiBiT, BRAF V600E, 24 hours, read-out: HiBiT-Degradation A375.10 BRAF 24 hours Emax
[9] = A375.10 cells, HiBiT, BRAF V600E, 24 hours, read-out: HiBiT-Degradation A375.10 BRAF 24 hours IP
[10] = A375.10 cells, HiBiT, BRAF V600E, 24 hours
[11] = read-out: HiBiT-Degradation A375.10 BRAF 2 hours Emax, A375.10 cells, BRAF V600E, 2 hours, residual protein remaining

T1 sequence (P15056 whole entry V600E): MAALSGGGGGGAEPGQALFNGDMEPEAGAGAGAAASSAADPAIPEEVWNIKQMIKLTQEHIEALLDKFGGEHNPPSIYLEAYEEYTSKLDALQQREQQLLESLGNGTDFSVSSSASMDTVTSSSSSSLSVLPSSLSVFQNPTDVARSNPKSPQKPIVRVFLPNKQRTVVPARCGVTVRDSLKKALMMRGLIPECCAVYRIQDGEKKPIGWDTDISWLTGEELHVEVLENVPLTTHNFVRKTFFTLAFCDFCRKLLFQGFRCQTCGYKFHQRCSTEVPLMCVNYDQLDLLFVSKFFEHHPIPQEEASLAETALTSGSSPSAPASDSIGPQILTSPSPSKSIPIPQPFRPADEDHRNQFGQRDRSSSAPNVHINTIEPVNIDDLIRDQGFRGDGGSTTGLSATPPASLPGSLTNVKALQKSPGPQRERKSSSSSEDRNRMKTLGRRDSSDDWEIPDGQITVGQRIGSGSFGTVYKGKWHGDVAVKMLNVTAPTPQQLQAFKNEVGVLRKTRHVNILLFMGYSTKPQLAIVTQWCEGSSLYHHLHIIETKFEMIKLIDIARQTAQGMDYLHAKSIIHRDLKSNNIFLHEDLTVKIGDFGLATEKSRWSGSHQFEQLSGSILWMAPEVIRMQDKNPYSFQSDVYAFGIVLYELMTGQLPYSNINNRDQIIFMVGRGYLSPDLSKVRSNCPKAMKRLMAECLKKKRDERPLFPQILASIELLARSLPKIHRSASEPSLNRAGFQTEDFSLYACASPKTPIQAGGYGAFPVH
T1 sequence (Q96SW2 whole entry): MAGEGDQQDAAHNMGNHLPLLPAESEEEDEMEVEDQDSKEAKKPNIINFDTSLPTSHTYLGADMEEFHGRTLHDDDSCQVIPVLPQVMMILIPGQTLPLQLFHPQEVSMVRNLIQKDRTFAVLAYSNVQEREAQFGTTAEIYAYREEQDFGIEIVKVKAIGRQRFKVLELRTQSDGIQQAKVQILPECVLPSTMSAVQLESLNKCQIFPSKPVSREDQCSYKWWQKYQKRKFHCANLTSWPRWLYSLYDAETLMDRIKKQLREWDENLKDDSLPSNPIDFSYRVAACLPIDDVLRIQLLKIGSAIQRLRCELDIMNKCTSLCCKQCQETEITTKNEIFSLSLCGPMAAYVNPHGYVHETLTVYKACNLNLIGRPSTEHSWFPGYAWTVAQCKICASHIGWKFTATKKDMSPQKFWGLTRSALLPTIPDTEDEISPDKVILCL
T1 sequence (Q16531 whole entry partner): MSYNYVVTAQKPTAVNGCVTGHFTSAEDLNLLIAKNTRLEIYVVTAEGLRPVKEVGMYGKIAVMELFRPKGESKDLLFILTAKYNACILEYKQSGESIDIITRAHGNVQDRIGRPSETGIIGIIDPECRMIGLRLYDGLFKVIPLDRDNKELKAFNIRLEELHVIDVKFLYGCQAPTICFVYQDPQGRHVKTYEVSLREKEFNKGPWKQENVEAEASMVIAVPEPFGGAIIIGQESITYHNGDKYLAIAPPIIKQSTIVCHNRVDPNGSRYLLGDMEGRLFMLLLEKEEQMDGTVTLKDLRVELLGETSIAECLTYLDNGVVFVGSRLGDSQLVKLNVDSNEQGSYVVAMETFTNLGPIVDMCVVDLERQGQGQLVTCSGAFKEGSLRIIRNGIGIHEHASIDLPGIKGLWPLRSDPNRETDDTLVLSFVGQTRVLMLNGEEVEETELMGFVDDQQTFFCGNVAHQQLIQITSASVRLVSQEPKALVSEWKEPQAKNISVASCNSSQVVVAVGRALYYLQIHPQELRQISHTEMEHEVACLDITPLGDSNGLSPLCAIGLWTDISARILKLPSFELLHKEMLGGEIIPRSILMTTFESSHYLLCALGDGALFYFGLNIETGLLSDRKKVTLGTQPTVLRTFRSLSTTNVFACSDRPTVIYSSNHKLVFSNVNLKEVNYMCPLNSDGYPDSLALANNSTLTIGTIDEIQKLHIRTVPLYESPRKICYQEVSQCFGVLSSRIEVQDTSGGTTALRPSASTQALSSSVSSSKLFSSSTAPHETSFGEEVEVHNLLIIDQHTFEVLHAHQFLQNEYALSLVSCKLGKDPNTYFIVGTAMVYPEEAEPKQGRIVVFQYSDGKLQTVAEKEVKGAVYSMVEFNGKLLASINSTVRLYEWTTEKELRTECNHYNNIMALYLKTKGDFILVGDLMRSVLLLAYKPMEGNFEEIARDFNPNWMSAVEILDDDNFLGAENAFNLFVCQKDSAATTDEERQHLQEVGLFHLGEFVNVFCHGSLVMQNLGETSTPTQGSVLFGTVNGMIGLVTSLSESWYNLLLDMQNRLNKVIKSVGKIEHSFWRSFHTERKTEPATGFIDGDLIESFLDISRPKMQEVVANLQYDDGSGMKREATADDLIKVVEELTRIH

GI50 [1] [nM] | DC50 [2, 3] [nM] | DC50 [2, 4] [nM] | HiBiT-Degradation A375.10 BRAF 2 hours Emax [2, 5] | GI50 ([1]; Homo sapiens, 96 h) [nM] | Emax [2, 6] [%] | DC50 [2, 7] [nM] | Emax [2, 8] [%] | DC50 [2, 9] [nM] | HiBiT-Degradation A375.10 BRAF 24 hours Emax [2, 10] | Emax [2, 11] [%] | Structure (SMILES) | CTGlo A375.11 96 hours Emax [1] | Emax ([1]; Homo sapiens, 96 h) [%]
< 1000 | < 1000 | < 1000 | *** (<=50%) | – | – | < 1000 | – | < 1000 | *** (<=50%) | – | CCN(C)S(=O)(=O)Nc1ccc(F)c(Oc2ccc3ncn(C4CC5(C4)CN(C4CCC(c6cc7c(cc6F)c(N6CCC(=O)NC6=O)nn7C)CC4F)C5)c(=O)c3c2)c1C#N (single isomer, unassigned) [Compound 300] | ** (<90% and >50%) | –
< 1000 | – | < 1000 | – | – | – | – | – | – | – | – | CCN(C)S(=O)(=O)Nc1ccc(F)c(Oc2ccc3ncn(C4CC5(CCN(C6CC7(C6)CN(c6cc8c(cc6F)c(N6CCC(=O)NC6=O)nn8C)C7)C5)C4)c(=O)c3c2)c1C#N (single isomer, unassigned) [Compound 302, 6-[2-cyano-3-[[ethyl(methyl)sulfamoyl]amino]-6-fluoro-phenoxy]-3-[6-[2-[3-(2,4-dioxohexahydropyrimidin-1-yl)-5-fluoro-1-methyl-indazol-6-yl]-2-azaspiro[3.3]heptan-6-yl]-6-azaspiro[3.4]octan-2-yl]-4-oxo-quinazoline] | – | –
– | < 1000 | 1000 to 10000 | – | 1000 to 10000 | 50 to 90 | – | – | – | – | – | CCN(C)S(=O)(=O)Nc1ccc(F)c(Oc2ccc3ncn(C4CC5(CCN(C6CCN(c7cc8c(cc7F)c(N7CCC(=O)NC7=O)nn8C)CC6)C5)C4)c(=O)c3c2)c1C#N (single isomer, unassigned) [Compound 307, 6-[2-cyano-3-[[ethyl(methyl)sulfamoyl]amino]-6-fluoro-phenoxy]-3-[6-[1-[3-(2,4-dioxohexahydropyrimidin-1-yl)-5-fluoro-1-methyl-indazol-6-yl]-4-piperidyl]-6-azaspiro[3.4]octan-2-yl]-4-oxo-quinazoline] | – | 50 to 90
– | < 1000 | 1000 to 10000 | * (>=90%) | > 10000 | – | – | – | – | – | – | CN(CCO)S(=O)(=O)Nc1ccc(F)c(Oc2ccc3ncc(C4CC5(C4)CN(C4CCC(c6cc7c(cc6F)c(N6CCC(=O)NC6=O)nn7C)CC4)C5)nc3c2)c1C#N (single isomer, unassigned) [Compound 321, 7-[2-cyano-6-fluoro-3-[[2-hydroxyethyl(methyl)sulfamoyl]amino]phenoxy]-2-[2-[4-[3-(2,4-dioxohexahydropyrimidin-1-yl)-5-fluoro-1-methyl-indazol-6-yl]cyclohexyl]-2-azaspiro[3.3]heptan-6-yl]quinoxaline] | – | 50 to 90
– | < 1000 | < 1000 | – | > 10000 | 50 to 90 | – | – | – | – | – | CN(CCO)S(=O)(=O)Nc1ccc(F)c(Oc2ccc3ncn([C@H]4COC5(CCN(C6CC7(C6)CN(c6cc8c(cc6F)c(N6CCC(=O)NC6=O)nn8C)C7)CC5)C4)c(=O)c3c2)c1C#N [Compound 130, (3R)-3-[6-[2-cyano-6-fluoro-3-[[2-hydroxyethyl(methyl)sulfamoyl]amino]phenoxy]-4-oxo-quinazolin-3-yl]-8-[2-[3-(2,4-dioxohexahydropyrimidin-1-yl)-5-fluoro-1-methyl-indazol-6-yl]-2-azaspiro[3.3]heptan-6-yl]-1-oxa-8-azaspiro[4.5]decane] | – | 50 to 90
– | < 1000 | > 10000 | – | 1000 to 10000 | – | – | – | – | – | 50 to 90 | CCN(C)S(=O)(=O)Nc1ccc(F)c(Oc2ccc3ncc([C@@H]4COC5(CCN(C6CC7(C6)CN(c6cc8c(cc6F)c(N6CCC(=O)NC6=O)nn8C)C7)CC5)C4)nc3c2)c1C#N [Compound 161, (3R)-3-[7-[2-cyano-3-[[ethyl(methyl)sulfamoyl]amino]-6-fluoro-phenoxy]quinoxalin-2-yl]-8-[2-[3-(2,4-dioxohexahydropyrimidin-1-yl)-5-fluoro-1-methyl-indazol-6-yl]-2-azaspiro[3.3]heptan-6-yl]-1-oxa-8-azaspiro[4.5]decane] | – | 50 to 90

The next lines start with the molecule.

Structure (SMILES) | GI50 [1] [nM] | DC50 [2, 3] [nM] | DC50 [2, 4] [nM] | HiBiT-Degradation A375.10 BRAF 2 hours Emax [2, 5] | GI50 ([1]; Homo sapiens, 96 h) [nM] | Emax [2, 6] [%] | DC50 [2, 7] [nM] | Emax [2, 8] [%] | DC50 [2, 9] [nM] | HiBiT-Degradation A375.10 BRAF 24 hours Emax [2, 10] | Emax [2, 11] [%] | CTGlo A375.11 96 hours Emax [1] | Emax ([1]; Homo sapiens, 96 h) [%]
CN(CCO)S(=O)(=O)Nc1ccc(F)c(Oc2ccc3ncc(C4CC5(CCN(C6CCC(c7cc8c(cc7F)c(N7CCC(=O)NC7=O)nn8C)CC6)CC5)C4)nc3c2)c1C#N (single isomer, unassigned) [Compound 295, 7-[2-cyano-6-fluoro-3-[[2-hydroxyethyl(methyl)sulfamoyl]amino]phenoxy]-2-[7-[4-[3-(2,4-dioxohexahydropyrimidin-1-yl)-5-fluoro-1-methyl-indazol-6-yl]cyclohexyl]-7-azaspiro[3.5]nonan-2-yl]quinoxaline] | 1000 to 10000 | < 1000 | < 1000 | ** (<90% and >50%) | – | – | – | – | – | – | – | * (>=90%) | –
CCN(C)S(=O)(=O)Nc1ccc(F)c(Oc2ccc3ncc(C4CC5(C4)CN(C4CCC(c6cc7c(cc6F)c(N6CCC(=O)NC6=O)nn7C)CC4)C5)nc3c2)c1C#N (single isomer, unassigned) [Compound 297, 7-[2-cyano-3-[[ethyl(methyl)sulfamoyl]amino]-6-fluoro-phenoxy]-2-[2-[4-[3-(2,4-dioxohexahydropyrimidin-1-yl)-5-fluoro-1-methyl-indazol-6-yl]cyclohexyl]-2-azaspiro[3.3]heptan-6-yl]quinoxaline] | – | < 1000 | 1000 to 10000 | – | 1000 to 10000 | 50 to 90 | < 1000 | < 50 | < 1000 | – | – | – | 50 to 90
CCN(C)S(=O)(=O)Nc1ccc(F)c(Oc2ccc3ncc(C4CC5(C4)CN(C4CCC(c6cc7c(cc6F)c(N6CCC(=O)NC6=O)nn7C)CC4)C5)nc3c2)c1C#N (single isomer, unassigned) [Compound 298, 7-[2-cyano-3-[[ethyl(methyl)sulfamoyl]amino]-6-fluoro-phenoxy]-2-[2-[4-[3-(2,4-dioxohexahydropyrimidin-1-yl)-5-fluoro-1-methyl-indazol-6-yl]cyclohexyl]-2-azaspiro[3.3]heptan-6-yl]quinoxaline] | < 1000 | < 1000 | < 1000 | *** (<=50%) | – | – | < 1000 | – | < 1000 | *** (<=50%) | – | *** (<=50%) | –
CCN(C)S(=O)(=O)Nc1ccc(F)c(Oc2ccc3ncn(C4CC5(C4)CN(C4CCC(c6cc7c(cc6F)c(N6CCC(=O)NC6=O)nn7C)CC4F)C5)c(=O)c3c2)c1C#N (single isomer, unassigned) [Compound 299] | – | < 1000 | 1000 to 10000 | – | 1000 to 10000 | – | < 1000 | < 50 | < 1000 | – | 50 to 90 | – | 50 to 90
CCN(C)S(=O)(=O)Nc1ccc(F)c(Oc2ccc3ncn(C4CC5(CCN(C6CC7(C6)CN(c6cc8c(cc6F)c(N6CCC(=O)NC6=O)nn8C)C7)C5)C4)c(=O)c3c2)c1C#N (single isomer, unassigned) [Compound 301, 6-[2-cyano-3-[[ethyl(methyl)sulfamoyl]amino]-6-fluoro-phenoxy]-3-[6-[2-[3-(2,4-dioxohexahydropyrimidin-1-yl)-5-fluoro-1-methyl-indazol-6-yl]-2-azaspiro[3.3]heptan-6-yl]-6-azaspiro[3.4]octan-2-yl]-4-oxo-quinazoline] | – | < 1000 | < 1000 | – | < 1000 | 50 to 90 | – | – | – | – | – | – | 50 to 90
CN(CCO)S(=O)(=O)Nc1ccc(F)c(Oc2ccc3ncc(C4CC5(C4)CN(C4CCC(c6cc7c(cc6F)c(N6CCC(=O)NC6=O)nn7C)CC4)C5)nc3c2)c1C#N (single isomer, unassigned) [Compound 322, 7-[2-cyano-6-fluoro-3-[[2-hydroxyethyl(methyl)sulfamoyl]amino]phenoxy]-2-[2-[4-[3-(2,4-dioxohexahydropyrimidin-1-yl)-5-fluoro-1-methyl-indazol-6-yl]cyclohexyl]-2-azaspiro[3.3]heptan-6-yl]quinoxaline] | > 10000 | < 1000 | 1000 to 10000 | ** (<90% and >50%) | – | – | – | – | – | – | – | ** (<90% and >50%) | –
CCN(C)S(=O)(=O)Nc1ccc(F)c(Oc2ccc3ncn(C4CC5(CCN(C6CC7(C6)CN(c6cc8c(cc6F)c(N6CCC(=O)NC6=O)nn8C)C7)CC5)C4)c(=O)c3c2)c1F (centres unmarked) [Compound 164, 3-[7-[2-[3-(2,4-dioxohexahydropyrimidin-1-yl)-5-fluoro-1-methyl-indazol-6-yl]-2-azaspiro[3.3]heptan-6-yl]-7-azaspiro[3.5]nonan-2-yl]-6-[3-[[ethyl(methyl)sulfamoyl]amino]-2,6-difluoro-phenoxy]-4-oxo-quinazoline] | – | < 1000 | < 1000 | – | 1000 to 10000 | 50 to 90 | – | – | – | – | – | – | 50 to 90
